{"source": "patent US20250034200A1", "about": "“Prodrugs of Neurosteroid Analogs and Uses Thereof” (priority 2021, published 2025)", "key": {"[1]": {"assay": "Aqueous stability assay (HPLC, pseudo first-order half-life)", "assay_type": "physicochemical", "conditions": "DPBS pH 7.0-7.3, 1 mg/mL, room temperature; for half-life at 1 mg/mL / half-life: buffer, read-out: PBS t1/2 (converted)", "method": "Aqueous stability experiments were performed on an Agilent 1100 HPLC equipped with an Agilent 1200 autosampler. HPLC grade solvents were exclusively used during analysis, with acetonitrile being purchased from Sigma Aldrich, and water and formic acid provided by Fisher Scientific. […]\n[…] All mixtures were then sonicated for 5 min or stirred until complete dissolution was achieved. Any precipitate observed in sample solutions was filtered with a PTFE syringe filter prior to analysis. Immediately after sample preparation, injection by the HPLC autosampler was performed, which was recorded as the initial time point (t=0 min). Samples were then kept in the autosampler at room temperature and injected at designated intervals without additional filtration or sample modification. Next, the area of the parent peak in each chromatogram was determined by automated integration in the Agilent ChemStation software. Pseudo first-order half-lives were then ascertained by calculating the percent of the parent compound remaining after each time point. Plots of time (x-axis) vs. the natural logarithm of percent parent remaining (y-axis) were subsequently constructed to determine the slope. Finally, the aqueous stability was evaluated using the following equation:\nThe HPLC conditions were as follows: injection volume, 1 μL; column temperature: 40° C.; detector: 254 nm; stationary phase: Zorbax Eclipse XDB-C18 (4.6×150 mm, 5 μm); flow rate: 1 mL/min; mobile phase: 80-95% acetonitrile in H2O (0.1% formic acid)."}, "[2]": {"assay": "Plasma stability assay (LC-MS/MS)", "assay_type": "in vitro ADME", "conditions": "human plasma, 37° C., 3 μM", "method": "Procaine and procainamide were purchased from Sigma Aldrich. HPLC-grade acetonitrile, water, methanol, and formic acid were purchased from Fisher Scientific. Human plasma (Cat. No. […]2N) was obtained from BIOIVT, and PBS (1×Dulbecco's, pH 7.4) from Thermo Fisher Scientific.\nTest compounds were dissolved in DMSO to make a stock solution of 10 mM and then diluted to 500 μM in buffer or 70% methanol. Human plasma was thawed at ambient temperature and aliquoted (994.0 μL) to a 1.5 mL Eppendorf tube in duplicates (vials A and B) for each compound. The plasma was incubated at 37° C. for 10 min in an incubator shaker at 150 RPM; the reaction was initiated by addition of the test compound (6.0 μL), followed by vortex mixing. The total reaction volume was 1000 μL, the final organic solvent concentrations were […] (when 70% methanol was used for dilution) and 0.03% DMSO, and the final concentration of the test compound was 3 μM. The spiked plasma samples were incubated at 37° C. for 4 h. The reactions were terminated at time point 0, 15, 30, 60, 120, 180, and 240 min by taking a 100 μL aliquot from the test incubation mixture and immediately quenching it by adding it into ice-cold acetonitrile or methanol (150 μL) containing 2 μM internal standard (ISTD), followed by vortex mixing. The ISTD was d5-7-ethoxy coumarin. The samples were then centrifuged at 15000 RPM for 25 min at 4° C., and the supernatant was transferred to an LC-MS vial for analysis by LC-MS/MS. Each time point was tested in duplicates followed by in-between blank washes to avoid carryover and to equilibrate the column.\nProcaine (poor plasma stability) and procainamide (good plasma stability) were used as controls at the same concentration as that of the test compound. These controls were run in parallel to test the assay's competency. Matrix blank was prepared by adding acetonitrile or methanol containing ISTD to plasma samples without any of the test or control compounds. Also, an additional control sample was made to simply monitor compound degradation in PBS buffer.\nBelow is a summary of samples prepared for a given test compound in a typical plasma stability assay: • Test compound (TC): 994 μL human plasma+6.0 μL TC (Vial A) 994 μL human plasma+6.0 μL TC (Vial B) • Control: 596 μL human plasma+3.6 μL (procaine+procainamide) • Blank matrix: 500 μL PBS buffer+100 μL human plasma • Additional control: 142 μL PBS buffer+0.9 μL TC • Quenching mixture: 150 μL acetonitrile or methanol with ISTD (2 μM) • Final volume: 250 μL (100 μL from the incubation mixture+150 μL quenching mixture; final ISTD conc.: 1.2 μM)\nLC-MS/MS analysis was performed using Agilent 1260 Infinity II HPLC, coupled with an Agilent G6460 triple quadrupole mass spectrometer (Agilent Technologies, USA). The data were acquired and processed using the Agilent 6460 Quantitative Analysis data processing software.\nReverse-phase HPLC separation for each compound was achieved on an Agilent InfinityLab Poroshell 120 C18 column (2.1×50 mm, 2.7 μm) with a mobile phase composed of methanol/water with 0.1% formic acid or acetonitrile/water with 0.1% formic acid at a flow rate of 0.5 mL/min. Each method was developed in the presence of the ISTD. The column temperature was maintained at 40° C. The detection was operated using the Agilent Jet-Stream electrospray positive ionization under the multiple reaction monitoring mode. The mass spec conditions were as follows: dwell time 100 ms; gas flow 10 L/min; nebulizer pressure 45 psi; delta EMV 200 V.\nPlots of time (x-axis) vs. the natural logarithm of percent parent remaining (y-axis) were subsequently constructed to determine the slope. Finally, the plasma stability was evaluated using the following equation: […]"}, "[3]": {"conditions": "read-out: Plasma t1/2 (converted)"}}, "note": "Structures can show the parent of a compound that is named as a salt. Where two headings read alike, the source gives them in different places."}
{"compound": "C/C(=N\\OC(=O)NCCCN)[C@H]1CC[C@H]2[C@@H]3CCC4=CC(=O)CC[C@]4(C)[C@H]3CC[C@]12C", "note": "[32e, (8S,9S,10R,13S,14S,17S)-17-((E)-1-((((3-aminopropyl)carbamoyl)oxy)imino)ethyl)-10,13-dimethyl-1,2,6,7,8,9,10,11,12,13,14,15,16,17-tetradecahydro-3H-cyclopenta[a]phenanthren-3-one hydrochloride]", "values": [{"measurement": "PBS t1/2", "setting": "[1]; d (days)", "result": 120, "unit": "days"}, {"measurement": "half-life at 1 mg/mL", "setting": "[1]", "result": 2880, "unit": "h"}]}
{"compound": "C/C(=N\\OC(=O)OCCN)[C@H]1CC[C@H]2[C@@H]3CCC4=CC(=O)CC[C@]4(C)[C@H]3CC[C@]12C", "note": "[32f, (8S,9S,10R,13S,14S,17S)-17-((E)-1-((((2-aminoethoxy)carbonyl)oxy)imino)ethyl)-10,13-dimethyl-1,2,6,7,8,9,10,11,12,13,14,15,16,17-tetradecahydro-3H-cyclopenta[a]phenanthren-3-one hydrochloride]", "values": [{"measurement": "half-life at 1 mg/mL", "setting": "[1]", "result": "0.11 ± 0.01", "unit": "h"}]}
{"compound": "C/C(=N\\OC(=O)N1CCC[C@H]1CN)[C@H]1CCC2[C@@H]3CCC4=CC(=O)CC[C@]4(C)[C@H]3CC[C@@]21C", "note": "(stereo partly drawn) [32h, ((2S)-1-(((((E)-1-((8S,9S,10R,13S,17S)-10,13-dimethyl-3-oxo-2,3,6,7,8,9,10,11,12,13,14,15,16,17-tetradecahydro-1H-cyclopenta[a]phenanthren-17-yl)ethylidene)amino)oxy)carbonyl)pyrrolidin-2-yl) methanaminium chloride]", "values": [{"measurement": "half-life at 3 µM", "setting": "[2]; [3]", "result": "> 4", "unit": "h"}, {"measurement": "half-life at 1 mg/mL", "setting": "[1]; d (days)", "result": "> 720", "unit": "h"}]}
{"compound": "CNC[C@@H]1CCCN1C(=O)O/N=C(\\C)[C@H]1CCC2[C@@H]3CCC4=CC(=O)CC[C@]4(C)[C@H]3CC[C@@]21C.Cl", "note": "(stereo partly drawn) [32k, 1-((2S)-1-(((((E)-1-((8S,9S,10R,13S,17S)-10,13-dimethyl-3-oxo-2,3,6,7,8,9,10,11,12,13,14,15,16,17-tetradecahydro-1H-cyclopenta[a]phenanthren-17-yl)ethylidene)amino)oxy)carbonyl)pyrrolidin-2-yl)-N-methylmethanaminium chloride]", "values": [{"measurement": "half-life", "setting": "[2]; [3]", "result": "> 4", "unit": "h"}, {"measurement": "half-life", "setting": "[1]; d (days)", "result": "> 720", "unit": "h"}]}
{"compound": "C/C(=N\\OC(=O)N(C)C[C@@H]1CCCCN1)[C@H]1CCC2[C@@H]3CCC4=CC(=O)CC[C@]4(C)[C@H]3CC[C@@]21C.Cl", "note": "(stereo partly drawn) [32l, (8S,9S,10R,13S,17S)-10,13-dimethyl-17-((E)-1-(((methyl(((S)-piperidin-2-yl)methyl)carbamoyl)oxy)imino)ethyl)-1,2,6,7,8,9,10,11,12,13,14,15,16,17-tetradecahydro-3H-cyclopenta[a]phenanthren-3-one hydrochloride]", "values": [{"measurement": "half-life", "setting": "[2]; [3]", "result": 6.8, "unit": "h"}, {"measurement": "half-life", "setting": "[1]; d (days)", "result": 475, "unit": "h"}]}
{"compound": "C/C(=N\\OC(=O)N(C)C[C@@H]1C[C@@H](O)CN1)[C@H]1CC[C@H]2[C@@H]3CCC4=CC(=O)CC[C@]4(C)[C@H]3CC[C@]12C.O=C(O)C(F)(F)F", "note": "[32m, (8S,9S,10R,13S,14S,17S)-17-((E)-1-((((((2S,4R)-4-hydroxypyrrolidin-2-yl)methyl)(methyl)carbamoyl)oxy)imino)ethyl)-10,13-dimethyl-1,2,6,7,8,9,10,11,12,13,14,15,16,17-tetradecahydro-3H-cyclopenta[a]phenanthren-3-one 2,2,2-trifluoroacetate]", "values": [{"measurement": "half-life", "setting": "[1]", "result": 1.3, "unit": "h"}]}
{"compound": "C/C(=N\\OC(=O)OC[C@@H]1CCCN1)[C@H]1CCC2[C@@H]3CCC4=CC(=O)CC[C@]4(C)[C@H]3CC[C@@]21C.Cl", "note": "(stereo partly drawn) [32n, (8S,9S,10R,13S,17S)-10,13-dimethyl-17-((E)-1-((((((S)-pyrrolidin-2-yl)methoxy)carbonyl)oxy)imino)ethyl)-1,2,6,7,8,9,10,11,12,13,14,15,16,17-tetradecahydro-3H-cyclopenta[a]phenanthren-3-one hydrochloride]", "values": [{"measurement": "half-life", "setting": "[1]", "result": "0.09 ± 0.01", "unit": "h"}]}
{"compound": "C/C(=N\\OC(=O)N(C)CCNCCF)[C@H]1CC[C@H]2[C@@H]3CCC4=CC(=O)CC[C@]4(C)[C@H]3CC[C@]12C.O=C(O)C(F)(F)F", "note": "[32o, (E)-2-((8S,9S,10R,13S,14S,17S)-10,13-dimethyl-3-oxo-2,3,6,7,8,9,10,11,12,13,14,15,16,17-tetradecahydro-1H-cyclopenta[a]phenanthren-17-yl)-11-fluoro-6-methyl-4-oxa-3,6,9-triazaundec-2-en-5-one 2,2,2-trifluoroacetate]", "values": [{"measurement": "Plasma t1/2", "setting": "[2]", "result": 2.2, "unit": "h"}, {"measurement": "half-life at 1 mg/mL", "setting": "[1]", "result": "36.1 ± 2.4", "unit": "h"}]}
{"compound": "CNCCN(CC(=O)O)C(=O)O/N=C(\\C)[C@H]1CC[C@H]2[C@@H]3CCC4=CC(=O)CC[C@]4(C)[C@H]3CC[C@]12C.O=C(O)C(F)(F)F", "note": "[53g, N-(((((E)-1-((8S,9S,10R,13S,14S,17S)-10,13-dimethyl-3-oxo-2,3,6,7,8,9,10,11,12,13,14,15,16,17-tetradecahydro-1H-cyclopenta[a]phenanthren-17-yl)ethylidene)amino)oxy)carbonyl)-N-(2-(methylamino)ethyl)glycine 2,2,2-trifluoroacetate]", "values": [{"measurement": "half-life", "setting": "[1]", "result": "> 24", "unit": "h"}]}
{"compound": "CNCCN(CCC(=O)O)C(=O)O/N=C(\\C)[C@H]1CC[C@H]2[C@@H]3CCC4=CC(=O)CC[C@]4(C)[C@H]3CC[C@]12C.O=C(O)C(F)(F)F", "note": "[53h, 3-((((((E)-1-((8S,9S,10R,13S,14S,17S)-10,13-dimethyl-3-oxo-2,3,6,7,8,9,10,11,12,13,14,15,16,17-tetradecahydro-1H-cyclopenta[a]phenanthren-17-yl)ethylidene)amino)oxy)carbonyl)(2-(methylamino)ethyl)amino) propanoic acid 2,2,2-trifluoroacetate]", "values": [{"measurement": "half-life", "setting": "[1]", "result": "> 24", "unit": "h"}]}
{"compound": "C/C(=N\\OC(=O)N(CCNC(C)(C)C)C(C)(C)C)[C@H]1CC[C@H]2[C@@H]3CCC4=CC(=O)CC[C@]4(C)[C@H]3CC[C@]12C.Cl", "note": "[54c, (E)-6-(tert-butyl)-2-((8S,9S,10R,13S,14S,17S)-10,13-dimethyl-3-oxo-2,3,6,7,8,9,10,11,12,13,14,15,16,17-tetradecahydro-1H-cyclopenta[a]phenanthren-17-yl)-10,10-dimethyl-4-oxa-3,6,9-triazaundec-2-en-5-one hydrochloride]", "values": [{"measurement": "Plasma % rmn at 2 h", "setting": "[2]; 2 h", "result": 93, "unit": "%"}, {"measurement": "half-life", "setting": "[1]", "result": "> 24", "unit": "h"}]}
{"compound": "C/C(=N\\OC(=O)N(C)Cc1ccccn1)[C@H]1CC[C@H]2[C@@H]3CCC4=CC(=O)CC[C@]4(C)[C@H]3CC[C@]12C", "note": "[compound 36, (8S,9S,10R,13S,14S,17S)-10,13-dimethyl-17-((E)-1-(((methyl(pyridin-2-ylmethyl)carbamoyl)oxy)imino)ethyl)-1,2,6,7,8,9,10,11,12,13,14,15,16,17-tetradecahydro-3H-cyclopenta[a]phenanthren-3-one]", "values": [{"measurement": "half-life", "setting": "[2]; [3]", "result": 222, "unit": "h"}]}
